Measurements as given in PMC10805714, “Functionally-selective inhibition of threshold sodium currents and excitability in dorsal root ganglion neurons by cannabinol” (Communications Biology, 2024).

How the values were obtained:
Nav1.7 = target: T1, Nav1.7 (Homo sapiens, UniProt Q15858); test: automated whole-cell patch-clamp (Qube-384), IC50 at -90 mV holding-potential; assay type: cell-based
T1 construct: gene SCN9A; human Nav1.7 stably expressed in HEK293 cells; with SCN1B (human, co-transfected)

Nav1.7-P610T = target: T2, Nav1.7-P610T (Homo sapiens, UniProt Q15858, P610T); test: automated patch-clamp, steady-state inactivation shift with […] s pre-pulse; assay type: cell-based
T2 construct: gene SCN9A; P610T plasmid transfected in HEK293 cells
T2 sequence (Q15858 whole entry P610T): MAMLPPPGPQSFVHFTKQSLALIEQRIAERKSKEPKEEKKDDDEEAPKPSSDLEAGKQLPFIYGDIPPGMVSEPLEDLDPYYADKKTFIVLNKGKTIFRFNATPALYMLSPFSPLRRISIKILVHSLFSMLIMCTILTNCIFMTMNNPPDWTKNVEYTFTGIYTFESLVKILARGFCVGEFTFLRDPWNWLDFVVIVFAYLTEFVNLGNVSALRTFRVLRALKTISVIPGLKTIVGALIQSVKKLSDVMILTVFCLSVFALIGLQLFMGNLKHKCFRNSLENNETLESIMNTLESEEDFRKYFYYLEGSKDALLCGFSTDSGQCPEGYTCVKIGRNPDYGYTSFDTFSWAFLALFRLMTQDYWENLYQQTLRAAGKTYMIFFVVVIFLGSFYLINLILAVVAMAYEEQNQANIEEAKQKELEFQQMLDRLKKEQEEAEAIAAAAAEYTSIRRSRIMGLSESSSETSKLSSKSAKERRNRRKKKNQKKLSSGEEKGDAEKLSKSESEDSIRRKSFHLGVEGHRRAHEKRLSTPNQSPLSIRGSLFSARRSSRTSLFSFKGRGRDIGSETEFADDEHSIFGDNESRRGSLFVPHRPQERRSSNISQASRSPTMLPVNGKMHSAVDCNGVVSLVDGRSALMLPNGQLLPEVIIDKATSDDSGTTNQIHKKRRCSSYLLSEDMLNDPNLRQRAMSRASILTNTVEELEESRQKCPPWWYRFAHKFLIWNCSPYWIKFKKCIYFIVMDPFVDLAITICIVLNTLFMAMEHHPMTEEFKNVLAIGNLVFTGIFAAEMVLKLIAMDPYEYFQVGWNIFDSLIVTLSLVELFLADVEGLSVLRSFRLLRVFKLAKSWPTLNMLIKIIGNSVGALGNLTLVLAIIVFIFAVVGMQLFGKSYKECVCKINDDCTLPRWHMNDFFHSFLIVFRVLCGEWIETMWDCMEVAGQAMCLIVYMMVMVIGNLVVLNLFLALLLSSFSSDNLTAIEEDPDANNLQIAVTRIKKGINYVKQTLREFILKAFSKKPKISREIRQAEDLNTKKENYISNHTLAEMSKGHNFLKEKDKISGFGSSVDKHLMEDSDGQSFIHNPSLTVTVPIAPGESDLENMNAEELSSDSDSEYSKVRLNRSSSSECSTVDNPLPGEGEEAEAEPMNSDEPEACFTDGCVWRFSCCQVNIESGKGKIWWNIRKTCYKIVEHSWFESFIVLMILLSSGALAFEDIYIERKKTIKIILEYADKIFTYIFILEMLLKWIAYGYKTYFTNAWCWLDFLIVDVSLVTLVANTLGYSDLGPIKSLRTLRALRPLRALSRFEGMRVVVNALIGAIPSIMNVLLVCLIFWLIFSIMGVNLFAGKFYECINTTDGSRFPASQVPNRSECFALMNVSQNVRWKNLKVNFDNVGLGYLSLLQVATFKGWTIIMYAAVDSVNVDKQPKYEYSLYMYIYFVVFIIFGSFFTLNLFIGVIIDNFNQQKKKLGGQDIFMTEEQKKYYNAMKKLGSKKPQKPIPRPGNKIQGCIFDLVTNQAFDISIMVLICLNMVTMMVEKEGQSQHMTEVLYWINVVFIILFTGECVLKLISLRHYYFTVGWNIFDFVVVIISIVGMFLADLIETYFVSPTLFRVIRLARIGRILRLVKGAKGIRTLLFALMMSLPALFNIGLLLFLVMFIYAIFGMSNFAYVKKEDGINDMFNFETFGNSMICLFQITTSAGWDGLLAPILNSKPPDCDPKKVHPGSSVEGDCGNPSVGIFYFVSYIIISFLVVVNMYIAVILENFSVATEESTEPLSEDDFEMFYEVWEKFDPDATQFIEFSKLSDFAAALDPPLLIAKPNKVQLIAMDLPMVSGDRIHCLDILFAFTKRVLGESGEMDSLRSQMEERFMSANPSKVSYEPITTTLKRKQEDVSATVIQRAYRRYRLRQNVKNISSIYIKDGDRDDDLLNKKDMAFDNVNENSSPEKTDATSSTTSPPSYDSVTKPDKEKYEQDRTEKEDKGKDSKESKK

T1 sequence (Q15858 whole entry): as the sequence (Q15858 whole entry P610T) above, with T610P counted along it
T1 sequence (Q07699 19-218 partner): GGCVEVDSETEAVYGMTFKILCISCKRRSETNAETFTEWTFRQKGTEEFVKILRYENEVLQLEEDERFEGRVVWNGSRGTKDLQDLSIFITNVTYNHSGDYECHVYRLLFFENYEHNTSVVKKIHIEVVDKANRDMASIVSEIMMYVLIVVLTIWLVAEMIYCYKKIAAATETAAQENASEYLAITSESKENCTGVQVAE

Q: Which results are given for CCCCCc1cc(O)c2c(c1)OC(C)(C)c1ccc(C)cc1-2 [CBN, Cannabinol]?
A: IC50 (Nav1.7): 10.7 µM; automated patch-clamp, steady-state inactivation shift with 5 s pre-pulse (Nav1.7-P610T): CBN hyperpolarized the SSI curves in both WT and P610T (Fig. S1)
